# Experimental data as given in patent US20230131899A1, “INHIBITORS OF MICROBIALLY INDUCED AMYLOID” (Axial Therapeutics, Inc., priority 2020, published 2023).
# Read-outs that look alike come from different tables or passages of the source.
# How the values were obtained:
# [1] = molecular target: T1, E. coli CsgA (Escherichia coli, UniProt P28307); test: In vitro ThioflavinT assay of CsgA aggregation (CsgA ThT Assay); format: biochemical
# T1 construct: made in house; host or cells: E. coli NEB 3016 slyD::kan, pET11d
# Summary of the method: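 Purified C-terminal His-tagged CsgA, monomerised by desalting and 30-kDa filtration, at 2-20 μM with 20-40 μM ThT in 50 mM potassium phosphate pH 7.3, 1% DMSO, compounds 3.125-200 uM; room temperature, fluorescence (ex 438/em 495 nm) read every 15 min. Background-subtracted signal expressed as percent inhibition versus vehicle at 6-6.5 or 8-9 h, or as percent control AUC.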
# [2] = system: CsgA gene expression (csgBAC promoter-GFP reporter) in E. coli UTI89; test: In vitro live cell fluorescent reporter assay of CsgA transcription (Reporter Assay); format: cell-based
# Summary of the method: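 Compounds at 0.14–100 μM (1% DMSO final) incubated 20 h at 27 °C in YESCA broth with UTI89 carrying a single-copy GFP reporter under the csgBAC intergenic promoter region, inoculum OD600 0.003. Fluorescence normalized to vehicle wells gave IC50 and 50%-of-vehicle concentration; OD600 reduction >10% flagged growth impact.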
# [3] = read-out: CsgA ThT Assay (2 μM CsgA) % Control Bmax 25 μM, activity range, class symbol, CsgA 2 μM, white plates, compound 25 μM
# [4] = read-out: CsgA ThT Assay (2 μM CsgA) % Control Bmax 25 μM, mean Bmax as percentage of DMSO control, CsgA 2 μM, white plates, compound 25 μM
# [5] = read-out: CsgA ThT Assay (2 μM CsgA) % Control Bmax 100 μM, activity range, class symbol, CsgA 2 μM, white plates, compound 100 μM
# [6] = read-out: CsgA ThT Assay (2 μM CsgA) % Control Bmax 100 μM, mean Bmax as percentage of DMSO control, CsgA 2 μM, white plates, compound 100 μM
# [7] = Escherichia coli, read-out: Reporter Assay Abs IC50 (μM), median Abs IC50 in the CsgA reporter assay, N/A = maximum expression reduction is <50% of control
# [8] = Escherichia coli, read-out: Reporter Assay Abs IC50, activity range, class symbol
# [9] = read-out: CsgA ThT Assay (10 μM CsgA) % Control AUC at 1005 minutes, 25 μM (activity range), CsgA 10 μM, black plates, compound 25 μM, 1005 minutes, class symbol
# [10] = read-out: CsgA ThT Assay (10 μM CsgA) % Control AUC at 1005 minutes, 25 μM, mean AUC as % of DMSO control, CsgA 10 μM, black plates, compound 25 μM, 1005 minutes
# [11] = read-out: CsgA ThT Assay (10 μM CsgA) % Control AUC at 1005 minutes, 100 μM (activity range), CsgA 10 μM, black plates, compound 100 μM, 1005 minutes, class symbol
# [12] = read-out: CsgA ThT Assay (10 μM CsgA) % Control AUC at 1005 minutes, 100 μM, mean AUC as % of DMSO control, CsgA 10 μM, black plates, compound 100 μM, 1005 minutes
# [13] = Escherichia coli, read-out: Reporter Assay Abs IC50 (activity range), median Abs IC50 in the CsgA reporter assay, class symbol
# T1 sequence (P28307 23-151): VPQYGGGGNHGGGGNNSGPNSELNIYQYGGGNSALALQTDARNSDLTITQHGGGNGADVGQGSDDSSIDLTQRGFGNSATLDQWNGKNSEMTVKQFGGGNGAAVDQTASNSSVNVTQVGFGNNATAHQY
SMILES,"remaining activity at 25 µM [1, 3] [%]","remaining activity at 25 µM [1, 4] [%]","remaining activity at 100 µM [1, 5] [%]","remaining activity at 100 µM [1, 6] [%]","IC50 [2, 7] [µM]","IC50 [2, 8] [µM]","remaining activity at 25 µM [1, 9] [%]","remaining activity at 25 µM [1, 10] [%]","remaining activity at 100 µM [1, 11] [%]","remaining activity at 100 µM [1, 12] [%]","IC50 [2, 13] [µM]","CsgA ThT Assay (10 μM CsgA) % Control AUC at 1005 minutes, 25 μM (activity range) ([1]; CsgA 10 μM, black plates, compound 25 μM, 1005 minutes, class symbol)","CsgA ThT Assay (10 μM CsgA) % Control AUC at 1005 minutes, 100 μM (activity range) ([1]; CsgA 10 μM, black plates, compound 100 μM, 1005 minutes, class symbol)","CsgA ThT Assay (10 μM CsgA) % Control AUC at 1005 minutes, 25 μM ([1]; mean AUC as % of DMSO control, CsgA 10 μM, black plates, compound 25 μM, 1005 minutes) [%]","CsgA ThT Assay (10 μM CsgA) % Control AUC at 1005 minutes, 100 μM ([1]; mean AUC as % of DMSO control, CsgA 10 μM, black plates, compound 100 μM, 1005 minutes) [%]","IC50 ([2]; read-out: Reporter Assay Abs IC50 (activity range), median Abs IC50 in the CsgA reporter assay, class symbol) [µM]","IC50 ([2]; read-out: Reporter Assay Abs IC50, median Abs IC50 in the CsgA reporter assay, N/A = maximum expression reduction is <50% of control) [µM]"
"O=C(O)C1CN(Cc2ccccn2)c2c(-c3cccc(C(F)(F)F)c3)c(Cc3cccc4ccccc34)c(Cl)c(=O)n21 (stereo not drawn) [Compound 166, 6-chloro-7-(naphthalen-1-ylmethyl)-5-oxo-1-(pyridin-2-ylmethyl)-8-(3-(trifluoromethyl)phenyl)-1,2,3,5-tetrahydroimidazo[1,2-a]pyridine-3-carboxylic acid]",> 60,72,31 to 60,40,2.5,1.3 to 4.5,,,,,,,,,,,
"CN1CC(C(=O)O)n2c(c(-c3cccc(C(F)(F)F)c3)c(Cc3cccc4ccccc34)c(CO)c2=O)S1(=O)=O (stereo not drawn) [Compound 077, 7-(hydroxymethyl)-2-methyl-8-(naphthalen-1-ylmethyl)-6-oxo-9-(3-(trifluoromethyl)phenyl)-3,4-dihydro-2H,6H-pyrido[1,2-e][1,2,5]thiadiazine-4-carboxylic acid 1,1-dioxide]",,,,,51.6,,> 60,97,> 60,87,> 10,,,,,,
"CN1CC(C(=O)O)n2c(c(-c3cccc(C(F)(F)F)c3)c(Cc3cccc4ccccc34)c(N3CCOCC3)c2=O)S1(=O)=O (stereo not drawn) [Compound 079, 2-methyl-7-morpholino-8-(naphthalen-1-ylmethyl)-6-oxo-9-(3-(trifluoromethyl)phenyl)-3,4-dihydro-2H,6H-pyrido[1,2-e][1,2,5]thiadiazine-4-carboxylic acid 1,1-dioxide]",,,,,10.7,,31 to 60,40,11 to 31,14,> 10,,,,,,
"O=C(O)C1CN(CC2CCCC2)S(=O)(=O)c2c(-c3cccc(C(F)(F)F)c3)c(Cc3cccc4ccccc34)c(NC3CCCC3)c(=O)n21 (stereo not drawn) [Compound 002, 7-(cyclopentylamino)-2-(cyclopentylmethyl)-8-(naphthalen-1-ylmethyl)-6-oxo-9-(3-(trifluoromethyl)phenyl)-3,4-dihydro-2H,6H-pyrido[1,2-e][1,2,5]thiadiazine-4-carboxylic acid 1,1-dioxide]",31 to 60,60,> 60,137,4.1,1.3 to 4.5,,,,,,,,,,,
"O=c1cc(Cc2cccc3ccccc23)c(-c2cccc(C(F)(F)F)c2)c2n1C(CO)CS2 (stereo not drawn) [Compound 118, 3-(hydroxymethyl)-7-(naphthalen-1-ylmethyl)-8-(3-(trifluoromethyl)phenyl)-2,3-dihydro-5H-thiazolo[3,2-a]pyridin-5-one]",,,,,3.9,,> 60,92,> 60,76,1.3 to 4.5,,,,,,
"O=C(O)C1CNS(=O)(=O)c2c(-c3cccc(C(F)(F)F)c3)c(C(F)(F)c3cccc4ccccc34)cc(=O)n21 (stereo not drawn) [Compound 137, 8-(difluoro(naphthalen-1-yl)methyl)-6-oxo-9-(3-(trifluoromethyl)phenyl)-3,4-dihydro-2H,6H-pyrido[1,2-e][1,2,5]thiadiazine-4-carboxylic acid 1,1-dioxide]",> 60,81,31 to 60,50,2.2,1.3 to 4.5,,,,,,,,,,,
"CNC(=O)CN1CC(C(=O)O)n2c(c(-c3cccc(C(F)(F)F)c3)c(Cc3cccc4ccccc34)cc2=O)S1(=O)=O (stereo not drawn) [Compound 049, 2-(2-(methylamino)-2-oxoethyl)-8-(naphthalen-1-ylmethyl)-6-oxo-9-(3-(trifluoromethyl)phenyl)-3,4-dihydro-2H,6H-pyrido[1,2-e][1,2,5]thiadiazine-4-carboxylic acid 1,1-dioxide]",,,,,8.9,,> 60,74,31 to 60,35,4.6 to 10,,,,,,
"O=C(O)C1CN(Cc2ccccc2)c2c(-c3cccc(C(F)(F)F)c3)c(Cc3cccc4ccncc34)c(Cl)c(=O)n21 (stereo not drawn) [Compound 205, 1-benzyl-6-chloro-7-(isoquinolin-8-ylmethyl)-5-oxo-8-(3-(trifluoromethyl)phenyl)-1,2,3,5-tetrahydroimidazo[1,2-a]pyridine-3-carboxylic acid]",> 60,69,31 to 60,44,22.4,> 10,,,,,,,,,,,
"CCN1CC(C(=O)O)n2c(c(-c3cccc(C(F)(F)F)c3)c(Cc3cccc4ccccc34)cc2=O)S1(=O)=O (single isomer, unassigned) [Compound 015b, 2-ethyl-8-(naphthalen-1-ylmethyl)-6-oxo-9-(3-(trifluoromethyl)phenyl)-3,4-dihydro-2H,6H-pyrido[1,2-e][1,2,5]thiadiazine-4-carboxylic acid 1,1-dioxide]",,,,,,,,,,,,(+++) (% control AUC of 11 to 31%),(+++) (% control AUC of 11 to 31%),29,23,> 10,22.5
"CCCN1CC(C(=O)O)n2c(c(-c3cccc(C(F)(F)F)c3)c(Cc3cccc4ccccc34)c(Br)c2=O)S1(=O)=O (stereo not drawn) [Compound 107, 7-bromo-8-(naphthalen-1-ylmethyl)-6-oxo-2-propyl-9-(3-(trifluoromethyl)phenyl)-3,4-dihydro-2H,6H-pyrido[1,2-e][1,2,5]thiadiazine-4-carboxylic acid 1,1-dioxide]",,,,,3.7,,31 to 60,36,31 to 60,38,1.3 to 4.5,,,,,,
"CCCN1CC(C(=O)O)n2c(c(-c3cccc(C(F)(F)F)c3)c(Cc3cccc4ccccc34)c(NCC3CCCC3)c2=O)S1(=O)=O (stereo not drawn) [Compound 128, 7-((cyclopentylmethyl)amino)-8-(naphthalen-1-ylmethyl)-6-oxo-2-propyl-9-(3-(trifluoromethyl)phenyl)-3,4-dihydro-2H,6H-pyrido[1,2-e][1,2,5]thiadiazine-4-carboxylic acid 1,1-dioxide]",,,,,2.2,,11 to 31,29,11 to 31,28,1.3 to 4.5,,,,,,
"O=C(O)C1CS(=O)(=O)c2c(-c3cccc(C(F)(F)F)c3)c(C(F)(F)c3cccc4ccccc34)cc(=O)n21 (stereo not drawn) [Compound 081, 7-(difluoro(naphthalen-1-yl)methyl)-5-oxo-8-(3-(trifluoromethyl)phenyl)-2,3-dihydro-5H-thiazolo[3,2-a]pyridine-3-carboxylic acid 1,1-dioxide]",,,,,16.5,,11 to 31,25,11 to 31,24,> 10,,,,,,
"O=C(O)[C@H]1CN(Cc2ccccc2)c2c(-c3cccc(C(F)(F)F)c3)c(Cc3cccc4ccccc34)c(Br)c(=O)n21 (single isomer, unassigned) [Compound 190]",> 60,63,31 to 60,56,1.6,1.3 to 4.5,,,,,,,,,,,
